The values that follow come from PubChem BioAssay AID624460 (Sanford-Burnham Center for Chemical Genomics, 2012).

Values joined by “and” are separate entries in the source; they are usually repeats but may differ in a detail not shown here. Equal entries are not always repeated. Active and inactive are the calls of the source.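 The calls were made as follows: active = protection of heart cells from peroxide damage with half-maximal concentration of 20 µM or lower (some results past the limit were not filed as active); inactive = the rest.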

The experiment relates to HL-1 cardiomyocytes, H2O2 injury, ATPLite viability, 2 h. Description: protection of HL-1 cardiomyocytes from peroxide, SAR follow-up, HL-1 cells, set 2 (AID 624460).
One may read the EC50 as the concentration that produces a half-maximal response. With `O=C1c2ccccc2N2C(=O)c3ccccc3C2N1c1ccccc1` (stereo not drawn), the EC50 is > 79 µM (inactive).

On to `COc1ccc2c(c1OC)C(=O)N1c3ccccc3C(=O)N(c3cccc(C(F)(F)F)c3)C21` (stereo not drawn), for which the EC50 is > 79 µM (inactive).

Regarding `COc1ccc2c(c1OC)C(=O)N1c3ccccc3C(=O)N(c3ccccc3)C21` (stereo not drawn), the EC50 is > 79 µM (inactive).

Regarding `COc1ccc2c(c1OC)C(=O)N1c3ccccc3C(=O)N(c3cccc(F)c3)C21` (stereo not drawn), the EC50 was 34.7 µM (inactive).

In the case of `COc1cccc(CNC(=O)c2cc(-c3cc(OC)c(OC)c(OC)c3)nc3ccccc23)c1`, the EC50 was 10.7 µM (inactive).

Take `COc1ccc(-c2cc(C(=O)Nc3cccc(C(C)=O)c3)c3ccccc3n2)cc1OC`: the EC50 is > 79 µM (inactive).

Consider `COc1cc(-c2cc(C(=O)Nc3cccc(C(F)(F)F)c3)c3ccccc3n2)cc(OC)c1OC`, for which the EC50 was > 79 µM (inactive).

As for `COc1ccc2c(c1OC)C(=O)N1c3ccccc3C(=O)N(c3cccc(Cl)c3)C21` (stereo not drawn), the EC50 was > 79 µM (inactive).

As for `COc1cc(-c2cc(C(=O)Nc3ccccc3)c3ccccc3n2)cc(OC)c1OC`, the EC50 was > 79 µM (inactive).

Take `COc1cc(-c2cc(C(=O)Nc3ccc(C(C)=O)cc3)c3ccccc3n2)cc(OC)c1OC`: the EC50 was 9.93 µM.

For `COc1cc(-c2cc(C(=O)Nc3cccc(C)c3)c3ccccc3n2)cc(OC)c1OC`, the EC50 was > 79 µM (inactive).

As for `O=C1c2ccccc2N2C(=O)c3ccccc3C2N1c1cccc(Br)c1` (stereo not drawn), the EC50 is > 79 µM (inactive).

On to `COc1ccc2c(c1OC)C(=O)N1c3ccccc3C(=O)N(c3ccc(C)cc3)C21` (stereo not drawn), for which the EC50 is > 79 µM (inactive).

As for `COc1cccc(-c2cc(C(=O)Nc3cccc(C(C)=O)c3)c3ccccc3n2)c1`, the EC50 was > 79 µM (inactive).

`CCN(CC(=O)Nc1ccc(C)cc1)C(=O)c1cc(-c2cccs2)nn1-c1ccccc1`: the EC50 is > 79 µM (inactive).

On to `CC(=O)c1cccc(NC(=O)c2cc(-c3ccccc3)nc3ccccc23)c1`, for which the EC50 was > 79 µM (inactive).

Turning to `CCN(CC(=O)Nc1ccc(OC)cc1)C(=O)c1cc(-c2cc(OC)c(OC)c(OC)c2)nc2ccccc12`, the EC50 was 9.39 µM.

In the case of `COc1cc(-c2cc(C(=O)Nc3cccc(C(C)=O)c3)c3cc(Cl)ccc3n2)cc(OC)c1OC`, the EC50 is 3.26 µM.

Regarding `CCN(CC(=O)Nc1ccc(F)cc1)C(=O)c1cc(-c2cccs2)nn1-c1ccccc1`, the EC50 was > 79 µM (inactive).

As for `COc1cc(-c2cc(C(=O)Nc3cccc(Cl)c3)c3ccccc3n2)cc(OC)c1OC`, the EC50 is > 79 µM (inactive).

Turning to `COc1ccc2c(c1OC)C(=O)N1c3ccccc3C(=O)N(Cc3ccccc3Cl)C21` (stereo not drawn), the EC50 was > 79 µM (inactive).

Regarding `COc1cccc(N2C(=O)c3ccccc3N3C(=O)c4c(ccc(OC)c4OC)C23)c1` (stereo not drawn), the EC50 was > 79 µM (inactive).

As to `COc1ccc(NC(=O)c2cc(-c3cc(OC)c(OC)c(OC)c3)nc3ccccc23)cc1`, the EC50 is 10.2 µM (inactive).

On to `COc1cccc(CNC(=O)c2cc(-c3ccc(OC)c(OC)c3)nc3ccccc23)c1`, for which the EC50 is 10.6 µM (inactive).

As to `COc1cc(-c2cc(C(=O)Nc3cccc(F)c3)c3ccccc3n2)cc(OC)c1OC`, the EC50 is 16.4 µM (inactive).

As for `COc1ccc2c(c1OC)C(=O)N1c3ccccc3C(=O)N(c3cccc(Br)c3)C21` (stereo not drawn), the EC50 was 3.29 µM and > 79 µM (inactive).

On to `COc1cccc(NC(=O)c2cc(-c3cc(OC)c(OC)c(OC)c3)nc3ccccc23)c1`, for which the EC50 is 9.39 µM.

For `COc1ccc2c(c1OC)C(=O)N1c3ccccc3C(=O)N(c3cccc(C)c3)C21` (stereo not drawn), the EC50 is 60.3 µM (inactive).

As for `COc1ccc(N2C(=O)c3ccccc3N3C(=O)c4c(ccc(OC)c4OC)C23)cc1` (stereo not drawn), the EC50 is 23.5 µM (inactive).

As for `CCOC(=O)c1cccc(NC(=O)c2cc(-c3cc(OC)c(OC)c(OC)c3)nc3ccccc23)c1`, the EC50 is 3.15 µM.

Take `CCN(CC(=O)Nc1ccc(OC)cc1)C(=O)c1cc(-c2cccs2)nn1-c1ccccc1`: the EC50 was 70.2 µM (inactive) and > 79 µM (inactive).

For `COc1ccc2c(c1OC)C(=O)N1c3ccccc3C(=O)N(Cc3cccc(Cl)c3)C21` (stereo not drawn), the EC50 was > 79 µM (inactive).

`CCN(CC(=O)Nc1ccccc1)C(=O)c1cc(-c2cccs2)nn1-c1ccccc1`: the EC50 was > 79 µM (inactive).

On to `COc1cc(-c2cc(C(=O)Nc3cccc(C(C)=O)c3)c3ccccc3n2)cc(OC)c1OC`, for which the EC50 is 1.47 µM and 8.54 µM.

Take `COc1ccc2c(c1OC)C(=O)N1c3ccccc3C(=O)N(c3ccc(C(C)(C)C)cc3)C21` (stereo not drawn): the EC50 was > 79 µM (inactive).

Regarding `COc1ccc2c(c1OC)C(=O)N1c3ccccc3C(=O)N(c3ccc(Br)cc3)C21` (stereo not drawn), the EC50 is > 79 µM (inactive).

Turning to `COc1ccc(-c2cc(C(=O)Nc3cccc(C(C)=O)c3)c3ccccc3n2)cc1`, the EC50 is > 79 µM (inactive).

As for `COc1cccc(N2C(=O)c3ccccc3N3C(=O)c4ccccc4C23)c1` (stereo not drawn), the EC50 is > 79 µM (inactive).
